From patent publication US20210369155A1, “Analyte Sensors and Sensing Methods for Detecting Inhibitors of Diaphorase” (Abbott Diabetes Care Inc., priority 2020, published 2021) come the findings set out here.

Assay [1] deals with Diaphorase. Nature of the assay: Detection of dicoumarol with sensors whose active area holds glucose dehydrogenase, NAD and rate-limiting diaphorase: glucose and dicoumarol titrated into PBS. In kind it is biochemical. The following applies: Sensors 5-8; PBS with 500 μM NAD, glucose up to 50 μM; DCM titrated up to 160 μM. The protocol:
Example 2: Detection of Dicoumarol Using an Analyte Sensor Having an Active Area with Glucose Dehydrogenase and a Rate-Limited Electron Transfer to the Working Electrode. For this example, the spotting formulations shown in Table 2 below were coated onto separate carbon working electrodes. A micro-syringe was use to deposit 35 nL of each formulation as a single spot having an area of around 0.2 mm^2 upon separate carbon working electrodes. Following deposition, the working electrodes were cured overnight at 25° C.
Glucose and dicoumarol were then titrated to PBS solutions in which the sensors were immersed. A 500 μM quantity of NAD was first added to the buffer solution, followed by three additions of glucose up to 50 μM. Thereafter, dicoumarol (DCM) was titrated up to 160 μM. FIGS. 14A and 14B are graphs showing the results of titrating glucose and dicoumarol (DCM) into PBS solutions exposed to electrodes having variable amounts of NAD-dependent glucose dehydrogenase in an active area thereon. […] As shown, increasing amounts of glucose dehydrogenase increased the signal response during glucose addition and during DCM addition.

Assay [2] concerns Diaphorase. Kind of assay: Inhibition of diaphorase by dicoumarol: NADH and dicoumarol titrated into PBS exposed to diaphorase-coated carbon working electrodes. In kind it is biochemical. As to the method: Example 1: Inhibition of Diaphorase by Dicoumarol. For this example, the spotting formulations shown in Table 1 below were coated onto separate carbon working electrodes. A micro-syringe was use to deposit 35 nL of each formulation as a single spot having an area of around 0.2 mm^2 upon separate carbon working electrodes. Following deposition, the working electrodes were cured overnight at 25° C.
The electrodes were exposed to fresh phosphate buffered saline (PBS) solutions, and varying amounts of NADH and dicoumarol were then titrated into the buffered solutions. No glucose or GDH was added to “power” the sensors and complete the enzyme system specified above (FIG. 3B). […] To the buffered solution containing 30 μM NADH was then titrated dicoumarol up to a concentration of 100 μM. […] FIG. 10 is a graph showing the results of titrating NADH and dicoumarol (DCM) into PBS solutions exposed to the analyte sensors of Example 1 (Sensors 1-4). […] A higher signal resulted for Sensor 2 as a result of its higher concentration of diaphorase. Given the goal of making the sensor response to be diaphorase limited, further optimization work centered around optimizing the sensor response at a low-concentration loading of the diaphorase. […]

With `O=c1oc2ccccc2c(O)c1Cc1c(O)c2ccccc2oc1=O` [dicoumarol], the “sensor current response during DCM addition (FIGS. 14A, 14B)” value in the assay with Diaphorase [1] is reported as “response decreased as increasing amounts of DCM were added”. Also, in the assay on Diaphorase [2] (0.2 mg/mL diaphorase, 0.4 mg/mL electron transfer agent, NADH titrated up to 160 μM), the “normalized sensor response as a function of dicoumarol concentration (FIGS. 11A, 11B, 13)” value is recorded as “strong inhibition”. In addition, the “sensor signal as the dicoumarol concentration increased (FIG. 10)” value with Diaphorase [2] (only Sensors 2 and 4 (0.4 mg/mL Formula 1 polymer), PBS with 30 μM NADH, dicoumarol titrated up to 100 μM, no glucose or GDH) is “sudden and sensitive decrease in signal”.
